The values that follow come from publication PMC6792352, “Limited Chemical Structural Diversity Found to Modulate Thyroid Hormone Receptor in the Tox21 Chemical Library” (Environmental Health Perspectives, 2019).

Counter-ions that a name gives are not always drawn. Bounds are passed on as bounds.

A short description of one data set: in vitro. The following applies: rat, gh3-tre-luc cells, AC50 (uM) modified / 1000.
`CCCCCCCCOC(=O)c1ccccc1C(=O)OCCCCCCCC` [Di-n-octyl phthalate] registered a CC50 at 24 h above 90 µM.

In turn, `CC(=O)Oc1cccc2c1C(=O)c1c(OC(C)=O)cc(C(=O)O)cc1C2=O` [Diacerein] gave a CC50 at 24 h above 50 µM.

The molecule `CC(=O)Nc1ccc(OC(C)=O)cc1` [Diacetamate] returned a CC50 at 24 h above 50 µM.

The molecule `CC(=O)CC(C)(C)O` [Diacetone alcohol] displayed a CC50 at 24 h above 90 µM.

On to `CC(=O)NNC(C)=O` [Diacetyl hydrazine], for which the CC50 at 24 h was above 90 µM.

Molecule `C=CCSSCC=C` [Diallyl disulfide] gave a CC50 at 24 h above 90 µM.

With `C=CCOC(=O)c1ccccc1C(=O)OCC=C` [Diallyl phthalate], the CC50 at 24 h is above 90 µM.

`C=CCSSSCC=C` [Diallyl trisulfide] registered a CC50 at 24 h above 50 µM.

Molecule `C=CCNCC=C` [Diallylamine] had a CC50 at 24 h above 90 µM.

In the case of `C=CC[N+](C)(C)CC=C` [Diallyldimethylammonium chloride], the CC50 at 24 h was above 90 µM.

On to `CC(=O)Nc1ccc(OCCOCCOc2ccc(NC(C)=O)cc2)cc1` [Diamfenetide], for which the CC50 at 24 h is above 50 µM.

On to `CCN(CC)CCOc1ccc2nc(N(C)C)sc2c1` [Diamthazole], for which the CC50 at 24 h was above 50 µM.

As for `Nc1ccc(C(=O)Nc2ccccc2N)cc1` [Dianiline], the midpoint of cytotoxicity, the CC50 at 24 h, lay at 14.1 µM.

The molecule `CC(=O)Nc1c(I)c(NC(C)=O)c(I)c(C(=O)O)c1I` [Diatrizoic acid dihydrate] returned a CC50 at 24 h above 50 µM.

In turn, `COc1ccc(Cc2cnc(N)nc2N)cc1OC` [Diaveridine] had a 50% cytotoxic concentration (CC50) at 24 h above 50 µM.

In turn, `CCOP(=S)(OCC)Oc1cc(C)nc(C(C)C)n1` [Diazinon] showed a CC50 at 24 h above 90 µM.

`O=C1C(N(CO)C(=O)NCO)N(CO)C(=O)N1CO` (stereo not drawn) [Diazolidinyl urea] returned a CC50 at 24 h above 90 µM.

Turning to `CC1=NS(=O)(=O)c2cc(Cl)ccc2N1` [Diazoxide], the 50% cytotoxic concentration (CC50) at 24 h was above 50 µM.

Consider `NC[C@@H]1CC[C@@H](N)[C@@H](O[C@H]2[C@H](O)[C@@H](O[C@H]3O[C@H](CO)[C@@H](O)[C@H](N)[C@H]3O)[C@H](N)C[C@@H]2N)O1` [Dibekacin], for which the CC50 at 24 h is above 50 µM.

Take `CN(Cc1ccccc1)Cc1ccccc1` [Dibemethine]: the CC50 at 24 h was above 50 µM.

In the case of `c1ccc2c(c1)ccc1cc3c(ccc4ccccc43)cc12` [Dibenz(a,h)anthracene], the CC50 at 24 h is above 50 µM.

As to `c1ccc2cc3c4ccccc4c4ccccc4c3cc2c1` [Dibenz[a,c]anthracene], the half-maximal cytotoxic concentration (CC50) at 24 h was above 90 µM.

Consider `CN(C)CCN1C(=O)c2ccccc2N(C)c2ccccc21` [Dibenzepin hydrochloride], for which the CC50 at 24 h is above 50 µM.

In turn, `c1ccc2c(c1)oc1ccccc12` [Dibenzofuran] came in with a CC50 at 24 h above 90 µM.

On to `O=C1c2ccccc2CCc2ccccc21` [Dibenzosuberone], for which the CC50 at 24 h was above 90 µM.

With `O=C(O[C@@H](C(=O)O)[C@@H](OC(=O)c1ccccc1)C(=O)O)c1ccccc1` [Dibenzoyl-L-tartaric acid], the CC50 at 24 h was above 90 µM.

Molecule `O=C(N=NC(=O)OCc1ccccc1)OCc1ccccc1` [Dibenzyl diazene-1,2-dicarboxylate] yielded a CC50 at 24 h above 90 µM.

In turn, `c1ccc(COCc2ccccc2)cc1` [Dibenzyl ether] registered a CC50 at 24 h above 100 µM.

With `O=C(OCc1ccccc1)C(=O)OCc1ccccc1` [Dibenzyl oxalate], the CC50 at 24 h was above 90 µM.

In turn, `O=P(O)(OCc1ccccc1)OCc1ccccc1` [Dibenzyl phosphate] gave a CC50 at 24 h above 90 µM.

Molecule `c1ccc(CNCc2ccccc2)cc1` [Dibenzylamine] showed a CC50 at 24 h above 90 µM.

`ClC(Cl)(Br)Br` [Dibromodichloromethane] came in with a CC50 at 24 h above 90 µM.

`O[C@@H]([C@H](O)[C@H](O)CBr)[C@H](O)CBr` [Dibromomannitol] gave a CC50 at 24 h above 90 µM.

With `BrCBr` [Dibromomethane], the CC50 at 24 h is above 90 µM.

As for `N=C(N)c1ccc(OCCCOc2ccc(C(=N)N)cc2Br)c(Br)c1` [Dibromopropamidine dihydrochloride], the CC50 at 24 h was determined as 38.5 µM.

`CCCCOc1cc(C(=O)NCCN(CC)CC)c2ccccc2n1` [Dibucaine] returned a CC50 at 24 h of 9.45 µM. This CC50 at 24 h lies about 4.1-fold lower than the previous one.

Molecule `CCC(C)SSC(C)CC` (stereo not drawn) [Dibutan-2-yl disulfide] came in with a CC50 at 24 h above 90 µM.

`CCCCOC(=O)CCCCC(=O)OCCCC` [Dibutyl adipate]: the CC50 at 24 h was above 90 µM.

Take `CCCCOC(=O)CCCCCCCCC(=O)OCCCC` [Dibutyl decanedioate]: the CC50 at 24 h was above 90 µM.

`CCCCOC(=O)C(=O)OCCCC` [Dibutyl ethanedioate] registered a CC50 at 24 h above 90 µM.

Turning to `CCCCOC(=O)/C=C\C(=O)OCCCC` [Dibutyl maleate], the CC50 at 24 h was above 90 µM.

`CCCCOC(=O)CCCCCCCC(=O)OCCCC` [Dibutyl nonanedioate]: the cytotoxic concentration (CC50) at 24 h is above 90 µM.

`CCCCOC(=O)c1ccccc1C(=O)OCCCC` [Dibutyl phthalate] displayed a CC50 at 24 h above 90 µM.

Turning to `CCCCSCCCC` [Dibutyl sulfide], the CC50 at 24 h is above 90 µM.

As for `COc1c(Cl)ccc(Cl)c1C(=O)O` [Dicamba], the CC50 at 24 h is above 90 µM.

`Cc1ccc2c(c1)C1CN(C)CCC1N2` (stereo not drawn) [Dicarbine] showed a CC50 at 24 h above 50 µM.

Regarding `CCOC(=O)OCC/C(SC(=O)OCC)=C(\C)N(C=O)Cc1cnc(C)nc1N` [Dicethiamine hydrochloride], the CC50 at 24 h was above 50 µM.

For `N#Cc1c(Cl)cccc1Cl` [Dichlobenil], the CC50 at 24 h was above 90 µM.

For `O=C(NC(O)C(Cl)(Cl)Cl)NC(O)C(Cl)(Cl)Cl` (stereo not drawn) [Dichloralurea], the CC50 at 24 h is above 50 µM.

In turn, `C=CCN(CC=C)C(=O)C(Cl)Cl` [Dichlormid] displayed a CC50 at 24 h above 90 µM.

Consider `O=C(O)C(Cl)Cl` [Dichloroacetic acid], for which the half-maximal cytotoxic concentration (CC50) at 24 h was above 90 µM.

`N#CC(Cl)Cl` [Dichloroacetonitrile] had a CC50 at 24 h of 72.9 µM.

Molecule `Cl[Si](Cl)(c1ccccc1)c1ccccc1` [Dichlorodiphenylsilane] showed a CC50 at 24 h above 90 µM.

The molecule `ClCCl` [Dichloromethane] showed a CC50 at 24 h above 90 µM.

In turn, `CC(C)(C)C(=O)C(Cl)Cl` [Dichloropinacolin] yielded a CC50 at 24 h above 90 µM.

`NS(=O)(=O)c1cc(Cl)c(Cl)c(S(N)(=O)=O)c1` [Dichlorphenamide]: the CC50 at 24 h was above 20 µM.

Molecule `CC(Oc1ccc(Cl)cc1Cl)C(=O)O` (stereo not drawn) [Dichlorprop] came in with a CC50 at 24 h above 90 µM.

The same data set, now with this note: rat, gh3-tre-luc cells, AC50 (uM) modified / 1000, Tox21_110001=Tox21_111308; viability, 1 nM T3 present, 24 h.
In turn, `c1ccc2c(c1)sc1ccccc12` [Dibenzothiophene] came in with a CC50 at 24 h above 50 µM.

Still in this data set, the particulars now being: rat, gh3-tre-luc cells, AC50 (uM) modified / 1000, Tox21_110001=Tox21_200642; viability, 1 nM T3 present, 24 h.
Regarding `CC(C)N(C(=O)SC/C(Cl)=C/Cl)C(C)C` [Diallate], half-maximal cytotoxicity (CC50 at 24 h) was put at 92.9 µM.

The data set is the same for the next values; noted with them: rat, gh3-tre-luc cells, AC50 (uM) modified / 1000, Tox21_110001=Tox21_200778; viability, 1 nM T3 present, 24 h.
With `O=C(Cl)C(Cl)Cl` [Dichloroacetyl chloride], the CC50 at 24 h was above 90 µM.

The same data set, now with this note: rat, gh3-tre-luc cells, AC50 (uM) modified / 1000, Tox21_110001=Tox21_200899; viability, 1 nM T3 present, 24 h.
Turning to `O=[N+]([O-])C(Br)Br` [Dibromonitromethane], the CC50 at 24 h was above 90 µM.

The same data set, now with this note: rat, gh3-tre-luc cells, AC50 (uM) modified / 1000, Tox21_110001=Tox21_200991; viability, 1 nM T3 present, 24 h.
As for `N#C/C(N)=C(/N)C#N` [Diaminomaleonitrile], the CC50 at 24 h is above 90 µM.

The data set is the same for the next values; noted with them: rat, gh3-tre-luc cells, AC50 (uM) modified / 1000, Tox21_110001=Tox21_201652; viability, 1 nM T3 present, 24 h.
Regarding `O=C1C(Cl)=C(Cl)C(=O)c2ccccc21` [Dichlone], the CC50 at 24 h was 31.4 µM.

Staying with this data set, now noted: rat, gh3-tre-luc cells, AC50 (uM) modified / 1000, Tox21_110001=Tox21_202045; viability, 1 nM T3 present, 24 h.
As to `c1ccc2c(c1)Oc1ccccc1O2` [Dibenzo-p-dioxin], the CC50 at 24 h was above 90 µM.

The data set is the same for the next values; noted with them: rat, gh3-tre-luc cells, AC50 (uM) modified / 1000, Tox21_110001=Tox21_202253; viability, 1 nM T3 present, 24 h.
In turn, `c1ccc(N=NNc2ccccc2)cc1` [Diazoaminobenzene] registered a CC50 at 24 h of 69 µM. In other words, the double-digit micromolar range.

Still in this data set, the particulars now being: rat, gh3-tre-luc cells, AC50 (uM) modified / 1000, Tox21_110001=Tox21_202297; viability, 1 nM T3 present, 24 h.
For `O=C(O)C(Br)Br` [Dibromoacetic acid], the CC50 at 24 h was above 90 µM.

Staying with this data set, now noted: rat, gh3-tre-luc cells, AC50 (uM) modified / 1000, Tox21_110001=Tox21_202319; viability, 1 nM T3 present, 24 h.
Consider `N#CC(Br)Br` [Dibromoacetonitrile], for which the CC50 at 24 h was above 90 µM.

Staying with this data set, now noted: rat, gh3-tre-luc cells, AC50 (uM) modified / 1000, Tox21_110001=Tox21_300794; viability, 1 nM T3 present, 24 h.
`CCOP(=S)(OCC)SC(CCl)N1C(=O)c2ccccc2C1=O` (stereo not drawn) [Dialifor] registered a CC50 at 24 h above 90 µM.

The same data set, now with this note: rat, gh3-tre-luc cells, AC50 (uM) modified / 1000, Tox21_110001=Tox21_301125; viability, 1 nM T3 present, 24 h.
In the case of `CCOP(=O)(OCC)Oc1cc(C)nc(C(C)C)n1` [Diazoxon], the CC50 at 24 h was above 90 µM.

Staying with this data set, now noted: rat, gh3-tre-luc cells, AC50 (uM) modified / 1000, Tox21_110001=Tox21_301160; viability, 1 nM T3 present, 24 h.
Take `CCOP(=S)(OCC)Oc1ccc(Cl)cc1Cl` [Dichlofenthion]: the CC50 at 24 h is above 90 µM.

The data set is the same for the next values; noted with them: rat, gh3-tre-luc cells, AC50 (uM) modified / 1000, Tox21_110001=Tox21_301514; viability, 1 nM T3 present, 24 h.
In turn, `CCCCOC(=O)CCC(=O)OCCCC` [Dibutyl butanedioate] had a CC50 at 24 h above 90 µM.

Staying with this data set, now noted: rat, gh3-tre-luc cells, AC50 (uM) modified / 1000, Tox21_110001=Tox21_301908; viability, 1 nM T3 present, 24 h.
For the molecule `COP(=S)(OC)Oc1ccc([N+](=O)[O-])cc1Cl` [Dicapthon], the CC50 at 24 h was above 90 µM.

The data set is the same for the next values; noted with them: rat, gh3-tre-luc cells, AC50 (uM) modified / 1000, Tox21_110001=Tox21_303031; viability, 1 nM T3 present, 24 h.
For the molecule `O=C1C(Cl)=C(Cl)C(=O)c2ccccc21` [Dichlone], the CC50 at 24 h was determined as 7.73 µM.

The same data set, now with this note: rat, gh3-tre-luc cells, AC50 (uM) modified / 1000, Tox21_110001=Tox21_303249; viability, 1 nM T3 present, 24 h.
With `c1ccc(N=NNc2ccccc2)cc1` [Diazoaminobenzene], the CC50 at 24 h stood at 47.9 µM.

Still in this data set, the particulars now being: rat, gh3-tre-luc cells, AC50 (uM) modified / 1000, Tox21_110001=Tox21_303415; viability, 1 nM T3 present, 24 h.
`c1ccc2c(c1)sc1ccccc12` [Dibenzothiophene] gave a CC50 at 24 h above 90 µM.
